Results as given in patent US20190175685A1, “METHODS OF TREATING AND PREVENTING CANCER TREATMENT SIDE EFFECTS” (FILAMENT BIOSOLUTIONS INC., priority 2016, published 2019).
“Also recorded” adds a separate entry of the source. Residues, ends and D or L forms follow the SMILES beside them.

Tests used:
[1] = Plasma glutamine levels after a single oral gavage dose in rats; type: in vivo, male Sprague Dawley rats; settings: for change in plasma glutamine levels versus pre-dose: high, medium and low dose, 3 to 540 minutes after dose, UHPLC/MS/MS
Protocol: Alanyl-Glutamine and glutamine were administered as a single dose by oral gavage, with deionized water as the vehicle, into male Sprague Dawley rats. The oral gavage of Alanyl-Glutamine and glutamine was administered to different groups at three distinct levels, a high, medium and low dose. Each dose level contained molar equivalent amounts of Glutamine (doses selected to correspond to relevant human doses) so that the resulting changes in plasma Glutamine levels could be directly compared in vivo. The concurrent control group received the vehicle (deionized water) by oral gavage. The dose volume was 20 ml/kg for the oral gavage. Each treatment group consisted of three males. For pharmacokinetic evaluation, blood samples were collected via a jugular vein cannula (JVC) from 3 animals/group/time point prior to dose administration and at 3, 10, 20, 40, 60, 90, 180, 360, and 540 minutes after dose administration. Each sample was analyzed to determine plasma glutamine concentration using a qualified ultra-high performance liquid chromatography mass spectrometry method (UHPLC/MS/MS), developed expressly for the determination of glutamine levels in rat plasma. A subtractive analysis of the plasma levels was then performed, in which the data from each individual animal was subtracted from their pre-dose plasma glutamine levels. The resulting data-points were then averaged for each dosing group and graphed, and represent the change in plasma glutamine after administration of the two different compositions.

[2] = tested on: small intestinal crypt survival and regeneration; assay: Intestinal crypt survival after irradiation in a murine model; type: in vivo, mice; settings: for number of surviving and regenerating crypts, pre-irradiation treatment versus treatment concurrent with radiation: oral twice daily 0.2 ml, day -5 to +4 compared with day 0 to +4, 13 Gy on day 0, scored day 4 post-irradiation
Text: In this example irradiation was used to target the proliferating clonogenic cells of the crypt. Following irradiation, crypt cells can become impaired and undergo apoptosis, or programmed cell death, resulting in a reduction in the number of viable crypts, which could regenerate and heal the intestinal tissue. The more crypts that are lost the greater the level of ulceration, which can manifest as the symptoms of mucositis. […] This model of crypt cell survival is therefore often used as a surrogate for manifestation of mucositis, e.g., oral mucositis.
In this example the efficacy of orally administered Alanyl-Glutamine (Ala-Gln) and Glutamine (Gln) on small intestinal crypt survival and regeneration and maintenance of villus structure was assessed in response to radiation insult in a murine model. The crypt cells were measured at 4 days post high-dose irradiation, a time at which crypt cells affected by radiation have died and surviving cells begin to regenerate. The level of crypt cell survival at this time directly correlates to severity of ulceration and ultimately animal survival.
Ala-Gln and Gin were administered orally twice daily at a volume of 0.2 ml either pre- and post-irradiation (day −5 to day 4), or post-irradiation alone (day 0 to day 4). The animals were given doses of Ala-Gln at a concentration of 39.65 mg/ml and Gln at a concentration of 26.75 mg/ml, which contain molar equivalent doses of Gin. Vehicle control animals were administered 0.2 ml of water orally twice daily.
Animals were irradiated on day 0 at 3 pm. Irradiation was performed using an XStrahl RS320 X-ray set, operated at 300 Kv, 10 Ma. Radiation was delivered at a dose rate of 0.832 Gy/min using a single uniform dose of 13 Gy radiation. A dosimetry device was placed in the irradiation chamber to confirm the dose received. […]
For each animal in the study, ten intestinal circumferences were analyzed, providing a total of 80 circumferences per treatment group available for analysis. The number of surviving and regenerating crypts per circumference was scored and the average per group was determined.

Row | SMILES | change in plasma glutamine levels versus pre-dose [1] | number of surviving and regenerating crypts, pre-irradiation treatment versus treatment concurrent with radiation [2] | plasma glutamine levels, Alanyl-Glutamine versus glutamine at equivalent molar doses ([1]; each of three dose levels (high, middle, low)) | average number of crypts, Ala-Gln versus Gln ([2]; groups treated pre-irradiation (-5 to +4), molar equivalent doses of Gln, 13 Gy, scored day 4)
1 | NC(=O)CC[C@H](N)C(=O)O [glutamine, reference compound] | increase in glutamine levels in the plasma at all dose levels | significantly more crypts | – | –
2 | C[C@H](N)C(=O)N[C@@H](CCC(N)=O)C(=O)O [Alanyl-Glutamine, L-alanyl-L-glutamine] (H-Ala-Gln-OH) | increase in glutamine levels in the plasma at all dose levels | significantly more crypts | higher plasma glutamine levels at each dose; also recorded: increased more | higher average number of crypts
